Experimental data as given in ChEMBL document CHEMBL1275274, “Direct renin inhibitors as a new therapy for hypertension” (J Med Chem, 2010).
Residue numbers refer to the chain shown, from its start. In brackets after ≈: the same amount, converted by molar mass.

Assays:
[1] = target: T1, Renin (Homo sapiens, UniProt P00797); type: cell-free, Plasma
T1 sequence (P00797 whole entry): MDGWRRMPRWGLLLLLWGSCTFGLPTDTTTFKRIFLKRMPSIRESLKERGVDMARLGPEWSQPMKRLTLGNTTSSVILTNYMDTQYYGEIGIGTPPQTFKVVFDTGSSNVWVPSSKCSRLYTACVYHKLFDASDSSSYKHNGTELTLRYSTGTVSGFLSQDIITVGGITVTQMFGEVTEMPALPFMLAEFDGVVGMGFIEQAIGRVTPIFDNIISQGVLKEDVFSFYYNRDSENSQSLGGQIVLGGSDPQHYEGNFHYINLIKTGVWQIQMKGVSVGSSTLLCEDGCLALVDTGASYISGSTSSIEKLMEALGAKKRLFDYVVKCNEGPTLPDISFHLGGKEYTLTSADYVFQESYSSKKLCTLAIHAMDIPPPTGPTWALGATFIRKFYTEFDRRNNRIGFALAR

[2] = target: T1, Renin; assay: Inhibition of human recombinant renin in buffer
[3] = Distribution coefficient, log D of the compound; type: physicochemical; conditions: octanol/water
[4] = Oral bioavailability in rat; type: ADME, organism-based; conditions: in vivo
[5] = Oral bioavailability in Wistar rat; type: ADME, organism-based; conditions: in vivo
[6] = Elimination half life in Wistar rat; type: ADME, organism-based; conditions: in vivo, read-out: beta t1/2 (converted)
[7] = Tmax in Wistar rat; type: ADME, organism-based; conditions: in vivo
[8] = target: T1, Renin; assay: Binding affinity to human recombinant renin by isothermal titration calorimetry
[9] = target: T1, Renin; assay: Inhibition of renin in human plasma; type: cell-free
[10] = target: T2, Renin (Macaca mulatta, UniProt Q6DLW5); assay: Inhibition of renin in monkey plasma
T2 sequence (Q6DLW5 whole entry): T1 sequence (P00797 whole entry) with T68A, I214L, S235A, Q270P, R406H

[11] = target: T1, Renin; assay: Inhibition of renin in pH 7.4 buffer
[12] = Aqueous solubility of the compound at pH 6.6 buffer; type: physicochemical
[13] = (§1) Oral bioavailability in dog; type: ADME, organism-based, Canis lupus familiaris; conditions: in vivo
[14] = Partition coefficient, log P of the compound at pH 7.4; type: physicochemical; conditions: octanol/water
[15] = test system: Canis familiaris; assay: as §1; type: ADME, organism-based, Canis lupus familiaris; conditions: in vivo
[16] = test system: Callithrix jacchus; assay: Oral bioavailability in marmoset; type: ADME, organism-based; conditions: in vivo
[17] = target: T3, Renin-1 (Mus musculus, UniProt P06281); assay: Inhibition of mouse renin
T3 sequence (P06281 whole entry): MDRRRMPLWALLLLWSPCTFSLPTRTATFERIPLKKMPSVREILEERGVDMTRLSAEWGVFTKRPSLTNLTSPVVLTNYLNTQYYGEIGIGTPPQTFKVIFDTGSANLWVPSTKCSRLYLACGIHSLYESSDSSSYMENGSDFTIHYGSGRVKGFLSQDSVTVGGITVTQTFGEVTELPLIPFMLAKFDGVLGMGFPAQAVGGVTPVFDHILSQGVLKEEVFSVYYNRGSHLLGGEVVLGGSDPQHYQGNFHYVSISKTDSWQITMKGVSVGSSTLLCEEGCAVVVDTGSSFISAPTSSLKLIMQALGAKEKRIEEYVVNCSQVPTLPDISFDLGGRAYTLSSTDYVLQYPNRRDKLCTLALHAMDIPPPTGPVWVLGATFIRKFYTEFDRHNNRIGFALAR

[18] = Competitive inhibition of pig pepsin at pH 5; set-up: species or system Sus scrofa
[19] = target: Voltage-gated inwardly rectifying potassium channel KCNH2 (Homo sapiens, UniProt Q12809); assay: Inhibition of human ERG
Chain of Voltage-gated inwardly rectifying potassium channel KCNH2 (Q12809 whole entry): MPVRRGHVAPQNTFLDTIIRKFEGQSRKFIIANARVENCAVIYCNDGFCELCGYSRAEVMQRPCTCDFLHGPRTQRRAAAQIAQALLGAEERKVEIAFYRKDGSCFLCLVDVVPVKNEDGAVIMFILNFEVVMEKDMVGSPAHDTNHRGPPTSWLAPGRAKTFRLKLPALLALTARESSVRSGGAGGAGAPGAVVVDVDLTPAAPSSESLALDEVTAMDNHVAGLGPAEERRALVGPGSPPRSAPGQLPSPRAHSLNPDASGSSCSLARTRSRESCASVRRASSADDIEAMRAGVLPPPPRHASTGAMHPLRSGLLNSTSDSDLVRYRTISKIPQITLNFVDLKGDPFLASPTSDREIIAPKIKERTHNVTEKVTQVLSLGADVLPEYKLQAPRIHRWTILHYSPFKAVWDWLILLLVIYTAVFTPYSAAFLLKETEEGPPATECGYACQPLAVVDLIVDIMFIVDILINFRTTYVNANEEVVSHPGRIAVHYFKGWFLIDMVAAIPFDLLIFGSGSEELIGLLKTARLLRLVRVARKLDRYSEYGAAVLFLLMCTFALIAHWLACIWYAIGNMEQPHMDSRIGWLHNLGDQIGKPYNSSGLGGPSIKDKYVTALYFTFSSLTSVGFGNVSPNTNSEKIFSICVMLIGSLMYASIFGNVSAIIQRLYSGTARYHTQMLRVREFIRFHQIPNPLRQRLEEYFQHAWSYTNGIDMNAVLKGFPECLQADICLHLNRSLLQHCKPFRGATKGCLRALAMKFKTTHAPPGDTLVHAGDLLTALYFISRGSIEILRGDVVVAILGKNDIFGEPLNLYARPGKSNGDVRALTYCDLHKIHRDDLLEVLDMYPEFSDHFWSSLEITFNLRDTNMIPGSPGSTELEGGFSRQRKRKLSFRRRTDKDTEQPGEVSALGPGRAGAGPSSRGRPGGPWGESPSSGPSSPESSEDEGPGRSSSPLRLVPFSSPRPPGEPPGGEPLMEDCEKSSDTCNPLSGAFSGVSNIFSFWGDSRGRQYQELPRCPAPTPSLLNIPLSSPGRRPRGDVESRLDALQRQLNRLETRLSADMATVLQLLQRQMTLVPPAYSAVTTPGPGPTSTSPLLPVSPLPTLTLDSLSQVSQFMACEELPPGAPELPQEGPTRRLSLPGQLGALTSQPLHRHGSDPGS

[20] = Oral bioavailability in monkey; type: ADME, organism-based, Macaca mulatta; conditions: rhesus monkey, in vivo
[21] = target: Cathepsin D (Homo sapiens, UniProt P07339); assay: Inhibition of cathepsin D
Chain of Cathepsin D (P07339 65-162 limits assumed): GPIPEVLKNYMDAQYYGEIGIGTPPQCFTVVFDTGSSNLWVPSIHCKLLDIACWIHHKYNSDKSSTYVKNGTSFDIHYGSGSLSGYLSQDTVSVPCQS
Chain of Cathepsin D (P07339 169-412 limits assumed): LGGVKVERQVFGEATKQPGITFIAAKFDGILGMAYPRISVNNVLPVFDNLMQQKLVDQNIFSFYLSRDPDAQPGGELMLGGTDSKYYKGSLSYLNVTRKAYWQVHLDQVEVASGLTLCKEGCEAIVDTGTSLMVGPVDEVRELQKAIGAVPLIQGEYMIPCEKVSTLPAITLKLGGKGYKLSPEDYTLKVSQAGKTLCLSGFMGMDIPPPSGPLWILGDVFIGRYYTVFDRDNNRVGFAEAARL

[22] = target: T4, Cathepsin E (Homo sapiens, UniProt P14091); assay: Inhibition of cathepsin E
T4 sequence (P14091 whole entry): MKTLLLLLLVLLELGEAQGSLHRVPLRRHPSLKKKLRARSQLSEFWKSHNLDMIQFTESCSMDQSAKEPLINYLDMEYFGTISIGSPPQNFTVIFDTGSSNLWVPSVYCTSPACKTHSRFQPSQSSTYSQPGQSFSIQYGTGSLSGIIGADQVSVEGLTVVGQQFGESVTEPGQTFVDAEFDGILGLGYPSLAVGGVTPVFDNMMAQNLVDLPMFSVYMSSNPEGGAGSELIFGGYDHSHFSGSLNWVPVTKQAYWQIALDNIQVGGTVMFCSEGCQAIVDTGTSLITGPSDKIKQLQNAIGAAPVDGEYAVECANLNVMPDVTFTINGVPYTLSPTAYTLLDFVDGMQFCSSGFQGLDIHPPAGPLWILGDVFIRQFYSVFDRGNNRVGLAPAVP

[23] = Oral bioavailability in rhesus monkey; type: ADME, organism-based, Macaca mulatta; conditions: in vivo
[24] = Elimination half life in dog; type: ADME, organism-based, Canis lupus familiaris; conditions: in vivo, read-out: beta t1/2 (converted)
[25] = Elimination half life in rhesus monkey; type: ADME, organism-based, Macaca mulatta; conditions: in vivo, read-out: beta t1/2 (converted)
[26] = target: Cytochrome P450 3A4 (Homo sapiens, UniProt P08684); assay: Inhibition of CYP3A4; type: ADME
Chain of Cytochrome P450 3A4 (P08684 whole entry): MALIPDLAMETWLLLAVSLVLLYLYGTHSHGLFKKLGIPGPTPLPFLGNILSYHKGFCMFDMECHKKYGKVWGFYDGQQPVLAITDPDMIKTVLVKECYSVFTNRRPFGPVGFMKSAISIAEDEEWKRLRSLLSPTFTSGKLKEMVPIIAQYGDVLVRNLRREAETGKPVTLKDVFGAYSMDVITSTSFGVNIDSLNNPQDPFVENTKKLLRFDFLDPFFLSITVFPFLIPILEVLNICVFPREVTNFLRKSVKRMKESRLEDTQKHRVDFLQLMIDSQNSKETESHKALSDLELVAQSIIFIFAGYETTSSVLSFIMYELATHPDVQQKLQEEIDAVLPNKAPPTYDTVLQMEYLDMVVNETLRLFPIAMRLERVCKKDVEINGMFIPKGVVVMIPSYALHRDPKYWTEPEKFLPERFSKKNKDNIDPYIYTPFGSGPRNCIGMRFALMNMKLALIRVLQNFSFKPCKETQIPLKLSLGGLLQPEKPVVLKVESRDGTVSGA

[27] = Inhibition of Cytochrome P450; type: ADME

## Cc1cc(Cl)c(OCCOc2ccc(C3=C(C(=O)N(Cc4cccc(C)c4C)C4CC4)[C@H]4CNC[C@@H](C3)N4)cc2)c(Cl)c1
[1]
  IC50: 19 nM
[2]
  IC50: 0.2 nM
[3]
  logD: > 4.9
[4]
  bioavailability: 24%
[5]
  bioavailability: 24%
[6]
  half-life: 6.6 h
[7]
  Tmax: 10 h

## CCCCNC(=O)[C@H](C)C[C@H](O)[C@@H](N)CC(C)(C)CC(=O)N1C[C@H](C(=O)OC)Cc2ccccc21
[2]
  IC50: 0.8 nM

## CCc1nc(N)nc(NCCNS(=O)(=O)c2ccc3ccccc3c2)c1-c1ccc2c(c1)N(CCCOC)C(=O)C(C)(C)O2
[8]
  Kd: 79 nM

## COC[C@@H]1CNC[C@H](OCc2ccc3ccccc3c2)[C@H]1c1ccc(COC(=O)c2ccccc2Cl)cc1
[2]
  IC50: 2 nM

## Brc1ccc([C@H]2CCNC[C@@H]2OCc2ccc3ccccc3c2)cc1
[2]
  IC50: 5000 nM

## CCCCNC(=O)[C@@H](NC[C@@H]1CCCCOc2ccccc2C[C@H](NC(=O)OC(C)(C)C)C(=O)N[C@@H](Cc2cnc[nH]2)C(=O)N1)C(C)C
[9]
  IC50: 20 nM

## C=CC[C@H](NC(=O)CNS(=O)(=O)N1CCOCC1)C(=O)N[C@@H](CC1CC=C(c2cccc3ccccc23)CC1)[C@@H](O)[C@@H](O)CC(C)C (stereo not given in full)
[10]
  IC50: 11 nM

## COCCCCOc1ccccc1C(=O)NC[C@@H](C[C@H](N)[C@@H](O)C[C@H](C(=O)NCCC1CCN(C(C)=O)CC1)C(C)C)C(C)C
[1]
  IC50: 0.3 nM

## CCC(C)C[C@H](NC(=O)[C@@H](NC[C@@H](O)[C@@H](N)CCCc1ccc(-c2ccccc2)cc1)C(C)C)C(=O)NCCCc1ccccc1 (stereo not given in full)
[11]
  IC50: 4 nM

## COc1ccccc1COCCCOc1ccc(C2=C(C(=O)N(Cc3ccnc(OC)c3C)C3CC3)[C@H]3CNC[C@@H](C2)N3)cc1
[1]
  IC50: 18 nM
[2]
  IC50: 1.4 nM

## COc1ccccc1COCCCOc1ccc([C@H]2CCNC[C@@H]2OCc2ccc3c(c2)N(CCNC(C)=O)CCC3)cc1
[1]
  IC50: 0.6 nM
[3]
  logD: 3
[12]
  solubility: 124 µg/mL (≈ 206 µM)

## COc1ccccc1COCCCOc1ccc([C@@H]2[C@@H](OCc3cc(OC)c4ccccc4c3)CNC[C@H]2OC[C@H](O)CO)cc1
[1]
  IC50: 2.2 nM
[2]
  IC50: 0.06 nM
[12]
  solubility: 24 µg/mL (≈ 38 µM)
[13]
  bioavailability: 27%
[14]
  logD: 3.7

## COc1ccccc1COCCCOc1ccc(N2CCNC[C@@H]2COC2=CC3C(C=C2)CCCN3CCNC(C)=O)cc1 (stereo not given in full)
[2]
  IC50: 0.5 nM

## COc1ccccc1COCCCOc1ccc(N2C(=O)CNC[C@@H]2COC2=CC3C(C=C2)CCCN3CCNC(C)=O)cc1 (stereo not given in full)
[2]
  IC50: 0.29 nM

## COCCCN1C(=O)COC2C=CC(OC[C@H]3CNCC(=O)N3c3ccc(OCCCOCc4ccccc4OC)cc3)=CC21 (stereo not given in full)
[2]
  IC50: 0.68 nM

## COCCCN1C(=O)COC2C=CC(SC[C@H]3CNCC(=O)N3c3ccc(OCCCOCc4ccccc4OC)cc3)=CC21 (stereo not given in full)
[2]
  IC50: 0.18 nM

## CCc1nc(N)nc(NCCc2ccccc2NC(=O)c2ccc(N)c(OC)c2)c1-c1ccc2c(c1)N(CCCOC)C(=O)C(C)(C)O2
[8]
  Kd: 270 nM

## COc1ccccc1COCCCOc1ccc(C2=C(C(=O)N(Cc3cccc(OC)c3C)C3CC3)[C@H]3CNC[C@@H](C2)N3)cc1
[2]
  IC50: 0.62 nM

## CCCCNC(=O)[C@H](C)C[C@H](O)[C@@H](N)C[C@@H](CNC(=O)c1cn(CC)c2ccccc12)C(C)C
[1]
  IC50: 4 nM

## CC(C)C[C@H](O)[C@H](O)[C@H](CC1CCCCC1)NC(=O)[C@H](Cc1cnc[nH]1)NC(=O)C[C@H](C)c1ccccc1
[2]
  IC50: 11 nM

## COc1cccc(OCCCc2cccnc2)c1C(=O)N[C@@H](CC1CCCCC1)[C@@H](O)[C@@H](O)CC(C)C
[2]
  IC50: 39 nM

## CCCCNC(=O)[C@H](C)C[C@H](O)[C@@H](N)C[C@H](C)COC(=O)c1cn(Cc2ccccc2)c2ccccc12
[2]
  IC50: 1 nM

## CNC[C@H](CC1CCCCC1)NC(=O)N1CCC[C@@H]([C@@H](OCCCOC)c2ccccc2)C1
[1]
  IC50: 447 nM
[4]
  bioavailability: 36%

## CC[C@H]1CC[C@](O)(CCc2ccccc2)C[C@@H]1C(=O)N[C@@H](CC1CCCCC1)[C@@H](O)[C@@H](O)CC(C)C
[2]
  IC50: 11 nM

## COCCCOc1cc(C[C@@H](C[C@H](N)[C@@H](O)C[C@H](C(=O)NCC(C)(C)C(N)=O)C(C)C)C(C)C)ccc1OC
[15]
  F: 32%
[16]
  F: 16%
[17]
  IC50: 4.5 nM

## COc1ccc(CO[C@H]2CNCC[C@@H]2c2ccc(Cl)cc2)cc1
[2]
  IC50: 25000 nM
[18]
  IC50: 1500 nM

## COc1ccccc1COCCCOc1ccc([C@H]2CCNC[C@@H]2OCc2ccc3c(c2)NCCC3)cc1
[1]
  IC50: 31 nM
[2]
  IC50: 0.21 nM
[3]
  logD: 5.6
[12]
  solubility: 3 µg/mL (≈ 5.81 µM)

## COC[C@@H](O)CO[C@@H]1CNC[C@H](OCc2cc(OC)c3ccccc3c2)[C@H]1c1ccc(OCCCOCc2ccccc2OC)cc1
[1]
  IC50: 8.9 nM
[12]
  solubility: 3 µg/mL (≈ 4.65 µM)
[13]
  bioavailability: 6%
[14]
  logD: 5.7

## CCc1nc(N)nc(N)c1-c1ccc2c(c1)N(CCNC(C)=O)C(=O)[C@](C)(c1ccccc1)O2
[4]
  bioavailability: 10%

## CNC[C@H](CC1CCCCC1)NC(=O)N1CCC[C@@H]([C@@](O)(CCCCOC)c2cccc(Cl)c2)C1
[12]
  solubility: > 1000 µg/mL
[4]
  bioavailability: 13%
[19]
  IC50: > 30000 nM

## O=C(C1=C(c2ccc(CCCOc3c(F)ccc(F)c3Cl)cc2)C[C@@H]2CNC[C@H]1N2)N(Cc1cccc(Cl)c1Cl)C1CC1
[3]
  logD: > 4.6
[13]
  bioavailability: 36%
[20]
  bioavailability: 9%
[21]
  IC50: 2700 nM
[22]
  IC50: 8100 nM
[23]
  bioavailability: 9%
[24]
  half-life: 10 h
[25]
  half-life: 10 h
[26]
  IC50: > 10000 nM

## COc1ccccc1COCCCOc1ccc(N2C(=O)CNC[C@@H]2COCc2cccnc2)cc1
[2]
  IC50: 12 nM

## CNC[C@H](CC1CCCCC1)NC(=O)N1CCC[C@@H]([C@@H](OCCNC(=O)OC)c2cccc(Cl)c2)C1
[1]
  IC50: 0.8 nM
[4]
  bioavailability: 9%

## CCc1nc(N)nc(N)c1-c1ccc2c(c1)N(CCCO)C(=O)C(C)(c1ccccc1)O2 (racemic)
[4]
  bioavailability: 44%
[27]
  IC50: > 30000 nM

## CN[C@H](CNC(=O)N1CCC[C@@H]([C@@H](OCCNC(=O)OC)c2cccc(Cl)c2)C1)C[C@H]1CCCOC1 [VTP-27999]
[1]
  IC50: < 10 nM
